PMC6863902, “Functional and structural basis of E. coli enolase inhibition by SF2312: a mimic of the carbanion intermediate” (Scientific Reports, 2019)
Where “and” joins values, the source holds several entries; their conditions need not be identical. Identical values can stand only once. Like-named read-outs stand apart in the source and are kept apart here. Blank lines part the entries; values can stand above or below the compound they belong to.

Assays:
[1] = target: T1, recombinant E. coli enolase (Escherichia coli, UniProt P0A6P9); assay: E. coli enolase enzymatic inhibition assay (PEP absorbance at 240 nm); assay type: biochemical; conditions: for IC50: enolase 40 nM, 0.5 mM 2-PGA, 25 °C; for Ki: from IC50 by Cheng-Prusoff equation and KM
T1 construct: made in house
Description: To assess the relative affinity of SF2312 and KSF for enolase, the inhibitory constant, Ki, was determined from IC50 values using the Cheng-Prusoff equation and KM values.
The activity and inhibition of E. coli enolase described in this study was carried out using the procedure as we previously reported. Briefly, enolase activity was measured at 25 °C in the forward (formation of PEP from 2‐PGA) direction by direct monitoring of the increase in PEP absorbance at 240 nm, using a DU 640 spectrophotometer (Beckman). The standard assay contained 50 mM Tris pH 8.0, 0.1 M KCl, 0.5 mM 2-PGA and 1 mM MgSO4. The reactions were carried out at a final volume of 500 μL. Initial velocities came from the slopes of linear progress curves of 1 minute duration. One unit of enolase activity was defined as the amount of protein which catalyzes the formation of 1 μmole PEP from 2-PGA in 1 minute. The concentration of PEP was determined using a molar extinction coefficient (Ɛ240nm = 1400 M^−1 cm^1).
Inhibition of enolase activity by SF2312 and its analog, KSF was performed at a constant enolase concentration of 40 nM. The compounds, supplied in water, were preincubated with protein at concentrations ranging from 2 nM to 20 µM for 5 minutes in the assay buffer consisting of 50 mM Tris pH 8.0, 0.1 M KCl and 1 mM MgSO4. The reaction was initiated by the addition of 0.5 mM 2-PGA. The decrease in enolase activity upon inhibition was monitored at 5 second intervals for a period of 5 minutes at λ =240 nm. The average half maximal inhibitory concentrations (IC50) was calculated from initial rates of absorbance increase plotted as a function of ligand concentration using GraphPad Prism software (Fig. 2). Ki values were calculated using the Cheng-Prusoff equation from the experimental IC50 and Km values.

[2] = target: T1, recombinant E. coli enolase; assay: Differential scanning calorimetry thermal unfolding of enolase with inhibitors; assay type: binding; conditions: for protein thermal melting point (Tm): enolase 6 μM with ligand 60 μM, apo enolase 52.7 °C; for shift of thermal melting point: versus enolase without inhibitor (∼53 °C)
Description: We used differential scanning calorimetry to analyze the direct in vitro binding of SF2312 and KSF to recombinant E. coli enolase (see Fig. 3). […] Upon overnight treatment with SF2312, the protein thermal melting point was ~82 °C, a shift of ∼29 °C.
The DCS experiment was performed as described previously. Prior to analysis, purified E. coli enolase was buffer exchanged into 20 mM HEPES (pH 7.0), 50 mM NaCl and 2 mM MgCl2. The concentrations of protein and ligand were adjusted to 6 μM and 60 μM, respectively. Protein samples with and without ligand were heated from 0–120 °C at 1 °C/min using a NanoDSC instrument (TA instruments). The samples were degassed for 15 minutes prior to injection into the calorimeter cell. The reference cell was filled with buffer for all runs. A pressure of 3 atm was applied to both cells during the run. The excess heat capacity scans for the protein transitions were obtained by subtracting a control scan of buffer versus buffer. The data were corrected for the difference in heat capacity between the initial and the final state by using a sigmoid baseline in the NanoAnalyze software (TA instruments) and a two-state transition model was used to determine the denaturation temperature (Tm) (Fig. 3).

[3] = tested on: E. coli ATCC 25922; assay: MIC, microdilution broth assay; assay type: cell-based; conditions: Escherichia coli
From the text: (§1) To evaluate the activity of SF2312 against Gram-positive and Gram-negative bacteria, we have determined the minimal inhibitory concentration (MIC) for Escherichia coli ATCC 25922, Staphylococcus aureus ATCC […], Pseudomonas aeruginosa ATCC 27853, and Acinetobacter baumannii ATTC 19606 using the microdilution broth assay based on Clinical and Laboratory Standards Institute. Concentrations of SF2312 and the standard antibiotics tested were serially diluted to the following ranges: SF2312, 300 to 0.2 μg/mL; trimethoprim 10 to 0.01 μg/mL and fosfomycin, 20 to 0.040 μg/mL. For synergy studies, using the checkerboard method the following concentration range was used: fosfomycin 10 to 0.156 μg/mL and SF2312 100 to 0.05 μg/mL. The cation-adjusted Mueller-Hinton broth was supplemented with 25 μg/mL glucose-6-phosphate. Growth was monitored at Abs 600 nm. The MIC of each antimicrobial agent alone and in combination was defined as the lowest concentration that inhibited visible growth of the organism and were determined in duplicate.

[4] = tested on: S. aureus ATCC 43300; assay: MIC, microdilution broth assay; assay type: cell-based; conditions: Staphylococcus aureus
From the text: as §1

[5] = tested on: A. baumannii ATCC 19606; assay: MIC, microdilution broth assay; assay type: cell-based, Acinetobacter baumannii
From the text: as §1

[6] = tested on: P. aeruginosa ATCC 27853; assay: MIC, microdilution broth assay; assay type: cell-based, Pseudomonas aeruginosa
From the text: as §1

[7] = tested on: E. coli ATCC 25922; assay: Checkerboard synergy of SF2312 with fosfomycin; assay type: cell-based, Escherichia coli; conditions: for MIC: Escherichia coli; for maximum drop of E. coli MIC when co-administered: SF2312 co-administered with fosfomycin
Description: It should be noted that the target of fosfomycin, UDP-N-acetylglucosamine enolpyruvyl transferase (MurA), acts immediately downstream of enolase utilizing PEP in the first step of peptidoglycan synthesis. Since targeting two sequential enzymes in the same metabolic pathway can be a powerful synergistic mechanism for two antibiotics, an evidence for synergy between SF2312 and fosfomycin was assessed by the checkerboard method. […] The observed synergy supports the notion that the antibacterial activity of SF2312 is due to the inhibition of enolase since, fosfomycin is known to have minimal to no effect on the enzymes utilizing PEP, such as enolase.
as §1
The definition of synergy used in these studies was the fractional inhibitory concentration (FIC) index, represented by the formula FIC= (MIC of fosfomycin in combination/MIC of fosfomycin alone) + (MIC of SF2312 in combination/MIC of the SF2312 alone). A calculated FIC index of less than 0.5 represented a synergistic effect (i.e., total effect greater than the sum of the individual antibiotic effects), a value between 0.5–2 represented an additive effect (i.e. no additional contribution from including the second antibiotic, compared with when the first antibiotic. A value greater than 2 represented an antagonistic effect (i.e., total effect less than the sum of the individual effects)[26].

[8] = tested on: ENO1-rescued cells; set-up: method as in earlier work; conditions: isogenic ENO1-rescued glioma cells; ref 5 (Leonard et al.); cited from earlier work
[9] = CAHM media with 25 μg/mL Glucose-6-Phosphate

T1 sequence (P0A6P9 whole entry): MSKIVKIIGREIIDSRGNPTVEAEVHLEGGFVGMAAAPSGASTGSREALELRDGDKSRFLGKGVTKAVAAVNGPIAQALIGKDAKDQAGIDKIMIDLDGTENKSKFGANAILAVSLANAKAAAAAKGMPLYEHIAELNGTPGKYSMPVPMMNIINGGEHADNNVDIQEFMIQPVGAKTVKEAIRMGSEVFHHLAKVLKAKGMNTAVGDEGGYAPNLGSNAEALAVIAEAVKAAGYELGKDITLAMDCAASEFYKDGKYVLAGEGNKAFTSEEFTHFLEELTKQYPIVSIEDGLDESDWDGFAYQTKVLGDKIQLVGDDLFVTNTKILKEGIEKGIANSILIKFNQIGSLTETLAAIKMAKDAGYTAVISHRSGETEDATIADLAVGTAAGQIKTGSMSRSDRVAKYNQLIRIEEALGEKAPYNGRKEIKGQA

Compound: O=C1C(P(=O)(O)O)CC(O)N1O (stereo not drawn) [SF2312, 3-Dihydroxyphosphoryl-1-,5-dihydroxy-2-pyrrolidone]
IC50 [1]: 0.0184 ± 0.00284 µM | Ki [1]: 0.0034 µM | protein thermal melting point (Tm) [2]: ~ 82 °C and 81.75 °C | shift of thermal melting point [2]: ~29 °C | MIC ([3]; ATCC25922, CAHM media with 25 μg/mL Glucose-6-Phosphate): 100 µg/mL | MIC ([3]; ATCC25922, CAHM media without Glucose-6-Phosphate): 400 µg/mL | MIC ([4]; ATCC43300, CAHM media with 25 μg/mL Glucose-6-Phosphate): 20 µg/mL | MIC ([4]; ATCC43300, CAHM media without Glucose-6-Phosphate): 100 µg/mL | MIC ([5]; Acinetobacter baumannii, ATCC19606): > 400 µg/mL | MIC [5, 9]: >400 µg/mL | MIC [6, 9]: 50 µg/mL | MIC ([6]; Pseudomonas aeruginosa, ATCC27853): 50 µg/mL | MIC ([7]; ATCC25922, read-out: MIC alone): 100 µg/mL | maximum drop of E. coli MIC when co-administered [7]: 16 fold | GI50 [8]: > 200 µM

Compound: O=C1CC(P(=O)(O)O)C(=O)N1O (stereo not drawn) [KSF, (1-hydroxy-2,5-dioxopyrrolidin-3-yl)phosphonic acid]
IC50 [1]: 7.67 µM and 7.7 µM | Ki [1]: 1.4 µM | loss in activity between SF2312 and KSF ([1]; ratio of IC50 values): over 400 fold | protein thermal melting point (Tm) [2]: 70.85 °C | shift of thermal melting point [2]: ~18 °C

MIC ([3]; ATCC25922, CAHM media with 25 μg/mL Glucose-6-Phosphate, read-out: MIC): 1.25 µg/mL | MIC ([3]; ATCC25922, CAHM media without Glucose-6-Phosphate, read-out: MIC): > 10 µg/mL | MIC ([4]; ATCC43300, CAHM media with 25 μg/mL Glucose-6-Phosphate, read-out: MIC): 2.5 µg/mL | MIC ([4]; ATCC43300, CAHM media without Glucose-6-Phosphate, read-out: MIC): 20 µg/mL | MIC ([5]; Acinetobacter baumannii, ATCC19606, CAHM media without Glucose-6-Phosphate, read-out: MIC): > 20 µg/mL | MIC [5, 9]: >20 µg/mL | MIC [6, 9]: 5 µg/mL | MIC ([6]; Pseudomonas aeruginosa, ATCC27853, CAHM media without Glucose-6-Phosphate, read-out: MIC): 5 µg/mL | MIC ([7]; ATCC25922, checkerboard, partner agent 0 μg/mL, 25 μg/mL glucose-6-phosphate, read-out: MIC alone): 1.25 µg/mL | maximum drop of E. coli MIC when co-administered [7]: 4 fold
Compound: C[C@@H]1O[C@@H]1P(=O)(O)O [fosfomycin]
